Laboratory results published in patent US7803930B2, “Antisense modulation of apolipoprotein B-expression” (Isis Pharmaceuticals, Inc., priority 2002, dated 2010).
Where two headings read alike, the source gives them in different places. In the oligonucleotide strings, read from the 5' end, every base follows the letter of its sugar. An asterisk marks phosphorothioate; unmarked linkages are phosphodiester. Other units and linkages are bracketed, terminal groups are in braces. A string of capitals states the bases alone. e = 2'-O-(2-methoxyethyl) (MOE); [5mC] = 5-methylcytosine; d = 2'-deoxy (DNA)

Tests used:
[1] = tested on: apolipoprotein B mRNA; assay: ob/ob mice (Example 50): apolipoprotein B mRNA levels in liver; format: in vivo, mouse; conditions: high fat high cholesterol diet, 50 mg/kg i.p. twice a week, six weeks
How it was run: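 Ob/ob mice on 60% kcal fat diet with 0.15% cholesterol received 50 mg/kg oligonucleotide i.p. twice weekly for six weeks, with saline and control oligonucleotides.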

[2] = High fat fed C57BL/6 mice, 6 week timecourse: body, spleen, liver and fat pad weight; format: in vivo, mouse; conditions: six weeks, vs saline-treated controls
Experimental: Male C57BL/6 mice (n=8) receiving a high fat diet (60% kcal fat) were evaluated over the course of 6 weeks for the effects of ISIS 147764 on body, spleen, liver and fat pad weight. Control animals received saline treatment (50 mg/kg). […]
At study termination, animals were sacrificed 48 hours after the final injections and body, spleen, liver and fat pad weights were measured. Values are expressed as percent change in body weight or ogan weight compared to the saline-treated control animals. Negative values indicated a decrease in weight.

[3] = format: in vivo, mouse; conditions: for Cholesterol Levels / Glucose Levels / Lipoprotein Levels HDL / Lipoprotein Levels LDL / Lipoprotein Levels VLDL: ApoE knockout mice, high fat diet, six weeks; for Liver Enzyme Levels ALT / Liver Enzyme Levels AST: mouse, in vivo, ip
Excerpt: Female ApoE knockout mice ranged in age from 5 to 7 weeks and were placed on a normal diet for 2 weeks before study initiation. ApoE knockout mice were then fed ad libitum a 60% fat diet, with 0.15% added cholesterol to induce dyslipidemia and obesity. Control animals were maintained on a high-fat diet with no added cholesterol. […]
At study termination and forty eight hours after the final injections, animals were sacrificed and evaluated for target mRNA levels in liver by RT-PCR methods verified by Northern Blot analysis, glucose levels, cholesterol and lipid levels by HPLC separation methods and triglyceride and liver enzyme levels (performed by LabCorp Preclinical Services; San Diego, Calif.).
Data are normalized to saline controls.

[4] = tested on: liver gene expression profile; lipid metabolism genes; assay: Microarray and real-time PCR analysis of liver gene expression in lean versus high-fat fed mice (Example 65); format: in vivo, mouse; conditions: high fat fed C57Bl/6 mice
Experimental: Male C57Bl/6 mice were divided into the following groups, consisting of 5 animals each: (1) mice on a lean diet, injected with saline (lean control); (2) mice on a high fat diet; (3) mice on a high fat diet injected with 50 mg/kg of the control oligonucleotide 141923 (SEQ ID NO: 858); (4) mice on a high fat diet given 20 mg/kg atorvastatin calcium (Lipitor®, Pfizer Inc.); (5) mice on a high fat diet injected with 10, 25 or 50 mg/kg ISIS 147764 (SEQ ID NO: 109). Saline and oligonucleotide treatments were administered intraperitoneally twice weekly for 6 weeks. Atorvastatin was administered daily for 6 weeks. At study termination, liver samples were isolated from each animal and RNA was isolated for Northern blot qualitative assessment, DNA microarray and quantitative real-time PCR. Northern blot assessment and quantitative real-time PCR were performed as described by other examples herein.
For DNA microarray analysis, hybridization samples were prepared from 10 μg of total RNA isolated from each mouse liver according to the Affymetrix Expression Analysis Technical Manual (Affymetrix, Inc., Santa Clara, Calif.). […] Signal values for each probe set were calculated using the Affymetrix Microarray Suite v5.0 software (Affymetrix, Inc., Santa Clara, Calif.). […]

[5] = tested on: mouse apolipoprotein B protein; assay: Transgenic mice dosing study (Example 52): immunoblot of mouse apolipoprotein B protein in serum and liver; format: in vivo
[6] = tested on: human apolipoprotein B protein; assay: Apolipoprotein B protein in primary human hepatocytes, immunoblot; format: cell-based; conditions: 50, 150 and 300 nM, 24 hours, 48 hours
Experimental: Protein samples from 50, 150 and 300 nM doses after 24 hours and 150 and 300 nM doses after 48 hours were subjected to immunoblot analysis as described by other examples herein, using a human apolipoprotein B protein specific antibody purchased from US Biological (Swampscott, Mass.).

[7] = Long-term study in lean Cynomolgous monkeys (Example 64): intact oligonucleotide in liver by capillary gel electrophoresis; format: in vivo, Cynomolgous monkey; conditions: for antisense oligonucleotide concentration: liver tissue, one month
Experimental: The results from the one month interval of the long term treatment are shown in Table 50 and are normalized to saline-treated animals for mRNA and to untreated baseline values for lipid levels. Total cholesterol, LDL-cholesterol, HDL-cholesterol, LDL particle concentration and triglyceride levels in serum were measured by nuclear magnetic resonance spectroscopy by Liposcience (Raleigh, N.C.). Additionally, the concentration of intact oligonucleotide in liver was measured by capillary gel electrophoresis and is presented as micrograms of oligonucleotide per gram of liver tissue. Each result represents the average of data from 4 animals (2 males and 2 females).

In the case of “147764 (eG*eT*e[5mC]*e[5mC]*e[5mC]*dT*dG*dA*dA*dG*dA*dT*dG*dT*d[5mC]*eA*eA*eT*eG*e[5mC]) [compound 147764]”, the “apolipoprotein B mRNA levels” value [1] was “able to lower” and the “mRNA % control ApoB” value ([1]; liver) was 43.1 % control.

In the case of “GTCCCTGAAGATGTCAATGC (2'-MOE gapmer, further chemistry not given here) [ISIS 147764]”, the “Percent Change Fat (fat pad weight)” value ([2]; 5 mg/kg i.p.) was 10%, the “Percent Change Liver weight” value ([2]; 5 mg/kg i.p.) was 18% and the “Percent Change Spleen weight” value ([2]; 5 mg/kg i.p.) was 10%. For the same substance, the “Percent Change Total Body Wt.” value ([2]; 5 mg/kg i.p.) was 5%, the “Percent Change Fat (fat pad weight)” value ([2]; 25 mg/kg i.p.) was 6% and the “Percent Change Liver weight” value ([2]; 25 mg/kg i.p.) was 70%. For the same substance, the “Percent Change Spleen weight” value ([2]; 25 mg/kg i.p.) was 10%, the “Percent Change Total Body Wt.” value ([2]; 25 mg/kg i.p.) was 5% and the “Percent Change Fat (fat pad weight)” value ([2]; 50 mg/kg i.p.) was −47%. For the same substance, the “Percent Change Liver weight” value ([2]; 50 mg/kg i.p.) was 80%, the “Percent Change Spleen weight” value ([2]; 50 mg/kg i.p.) was 46% and the “Percent Change Total Body Wt.” value ([2]; 50 mg/kg i.p.) was −4%. For the same substance, the “Cholesterol Levels” value ([3]; 5 mg/kg i.p. every three days) was 1630 mg/dL, the “Glucose Levels” value ([3]; 5 mg/kg i.p. every three days) was 195 mg/dL and the “Lipoprotein Levels HDL” value ([3]; 5 mg/kg i.p. every three days) was 49 mg/dL. For the same substance, the “Lipoprotein Levels LDL” value ([3]; 5 mg/kg i.p. every three days) was 475 mg/dL, the “Lipoprotein Levels VLDL” value ([3]; 5 mg/kg i.p. every three days) was 1111 mg/dL and the “Cholesterol Levels” value ([3]; 25 mg/kg i.p. every three days) was 1750 mg/dL. For the same substance, the “Glucose Levels” value ([3]; 25 mg/kg i.p. every three days) was 209 mg/dL, the “Lipoprotein Levels HDL” value ([3]; 25 mg/kg i.p. every three days) was 62 mg/dL and the “Lipoprotein Levels LDL” value ([3]; 25 mg/kg i.p. every three days) was 500 mg/dL. The “Lipoprotein Levels VLDL” value ([3]; 25 mg/kg i.p. every three days) was 1194 mg/dL, the “Cholesterol Levels” value ([3]; 50 mg/kg i.p. every three days) was 1490 mg/dL and the “Glucose Levels” value ([3]; 50 mg/kg i.p. every three days) was 191 mg/dL. For the same substance, the “Lipoprotein Levels HDL” value ([3]; 50 mg/kg i.p. every three days) was 61 mg/dL, the “Lipoprotein Levels LDL” value ([3]; 50 mg/kg i.p. every three days) was 325 mg/dL and the “Lipoprotein Levels VLDL” value ([3]; 50 mg/kg i.p. every three days) was 1113 mg/dL. The “Liver Enzyme Levels ALT” value ([3]; 5 mg/kg) was 48 IU/L, the “Liver Enzyme Levels AST” value ([3]; 5 mg/kg) was 50 IU/L and the “Liver Enzyme Levels ALT” value ([3]; 25 mg/kg) was 59 IU/L. The “Liver Enzyme Levels AST” value ([3]; 25 mg/kg) was 60 IU/L, the “Liver Enzyme Levels ALT” value ([3]; 50 mg/kg) was 87 IU/L and the “Liver Enzyme Levels AST” value ([3]; 50 mg/kg) was 85 IU/L. The “mRNA expression of lipid metabolism genes (hepatic lipase, fatty acid synthase, ABCD2, FABP2, stearol CoA desaturase-1, HMG CoA reductase), real-time PCR” value [4] was “reduction in mRNA expression” and the “liver gene expression profile (microarray)” value ([4]; 10, 25 or 50 mg/kg i.p. twice weekly, 6 weeks) was “drives the gene expression profile in high fat fed mice to the profile observed in lean mice”.

With “ISIS 301012: SEQ ID NO: 247, antisense oligonucleotide targeted to human apolipoprotein B (antisense GCCTCAGTCTGCTTCGCACC; chemistry not given here)” the “expression of the mouse apolipoprotein B protein in liver (immunoblot)” value [5] was “does not change significantly”, the “expression of the mouse apolipoprotein B protein in serum (immunoblot)” value [5] was “no significant change” and the “apolipoprotein B protein in human hepatocytes (immunoblot)” value [6] was “reduced in a dose-dependent manner”. It also gave an antisense oligonucleotide concentration ([7]; intravenous 2 mg/kg) of 92 µg/g, an antisense oligonucleotide concentration ([7]; intravenous 4 mg/kg) of 179 µg/g and an antisense oligonucleotide concentration ([7]; intravenous 12 mg/kg) of 550 µg/g. The antisense oligonucleotide concentration ([7]; subcutaneous 20 mg/kg) was 855 µg/g and the “accumulation of antisense oligonucleotide in the liver” value ([7]; one month interval) was “accumulates in the liver in a dose-dependent manner”.
